From ChEMBL document CHEMBL3885861, “Open TG-GATES”

Organism: Rattus norvegicus
Test: Open TG-GATES - Regimen: Daily Repeat
Type: toxicity, organism-based, Sprague-Dawley
Set-up: regimen Daily Repeat, gender Male, age 6 weeks
Settings: in vivo, po, route gavage; for APTT / Bas / Eos / Fbg / Hb / Ht / Lym / MCH / MCHC / MCV / Mono / Neu / PT / Plat / RBC / Ret / WBC: tissue Blood; for KIDNEY_L / KIDNEY_R / KIDNEY_TOTAL: tissue Kidney; for LIVER: tissue Liver; for A/G / ALP / ALT / AST / BUN / CRE / Ca / Cl / DBIL / GLC / IP / K / LDH / Na / PL / RALB / TBIL / TC / TG / TP / gamma-GTP: tissue Plasma
[1] = 100 mg/kg, 72 h, dose level Middle, time 3 day
[2] = 100 mg/kg, […], dose level Middle, time 7 day
[3] = 100 mg/kg, […], dose level Middle, time 14 day
[4] = 100 mg/kg, […], dose level Middle, time 28 day
[5] = 300 mg/kg, 72 h, dose level High, time 3 day
[6] = 300 mg/kg, […], dose level High, time 7 day
[7] = 300 mg/kg, […], dose level High, time 14 day
[8] = 300 mg/kg, […], dose level High, time 28 day

## C[C@]12CCC(=O)C=C1CC[C@@H]1[C@@H]2CC[C@@]2(C)[C@H]1CC[C@]2(C)O [METHYLTESTOSTERONE]
[1]
  TERMINAL_BW: 237.7 g
  APTT: 15.9 s
  Bas: 0%
  Eos: 1%
  Fbg: 325.4 mg/dL
  Hb: 13.7 g/dL
  Ht: 40.1%
  Lym: 73.6%
  MCH: 21.9 pg
  MCHC: 34%
  MCV: 64.5 fL
  Mono: 2.4%
  Neu: 22.6%
  PT: 13 s
  Plat: 107 x10_4/uL
  RBC: 623.4 x10_4/ul
  Ret: 7%
  WBC: 71.4 x10_2/uL
  KIDNEY_L: 1.1 g
  KIDNEY_R: 1 g
  KIDNEY_TOTAL: 2.1 g
  LIVER: 11.9 g
  A/G: 0.9
  ALP: 1787 IU/L
  ALT: 41.8 IU/L
  AST: 65.2 IU/L
  BUN: 14.6 mg/dL
  CRE: 0.2 mg/dL
  Ca: 11.1 mg/dL
  Cl: 107.2 meq/L
  DBIL: 0.02 mg/dL
  GLC: 180 mg/dL
  IP: 8.2 mg/dL
  K: 4.1 meq/L
  LDH: 77.4 IU/L
  Na: 143.4 meq/L
  PL: 135 mg/dL
  RALB: 2.8 g/dL
  TBIL: 0.026 mg/dL
  TC: 55 mg/dL
  TG: 155.2 mg/dL
  TP: 6 g/dL
  gamma-GTP: 1 IU/L
[2]
  TERMINAL_BW: 271.1 g
  APTT: 15.7 s
  Bas: 0%
  Eos: 1%
  Fbg: 324.2 mg/dL
  Hb: 13.9 g/dL
  Ht: 40.8%
  Lym: 79%
  MCH: 21 pg
  MCHC: 34.1%
  MCV: 61.4 fL
  Mono: 2.6%
  Neu: 16.8%
  PT: 13.4 s
  Plat: 116 x10_4/uL
  RBC: 663.8 x10_4/ul
  Ret: 5.3%
  WBC: 72.5 x10_2/uL
  KIDNEY_L: 1.1 g
  KIDNEY_R: 1.2 g
  KIDNEY_TOTAL: 2.3 g
  LIVER: 13.1 g
  A/G: 0.9
  ALP: 2042.4 IU/L
  ALT: 46.8 IU/L
  AST: 71.6 IU/L
  BUN: 16.6 mg/dL
  CRE: 0.2 mg/dL
  Ca: 11 mg/dL
  Cl: 105.4 meq/L
  DBIL: 0.028 mg/dL
  GLC: 194.8 mg/dL
  IP: 8 mg/dL
  K: 4 meq/L
  LDH: 100 IU/L
  Na: 143 meq/L
  PL: 133.6 mg/dL
  RALB: 2.7 g/dL
  TBIL: 0.028 mg/dL
  TC: 45.8 mg/dL
  TG: 238.4 mg/dL
  TP: 5.9 g/dL
  gamma-GTP: 1.2 IU/L
[3]
  TERMINAL_BW: 314.6 g
  APTT: 19.7 s
  Bas: 0.2%
  Eos: 0.6%
  Fbg: 304 mg/dL
  Hb: 14.3 g/dL
  Ht: 41%
  Lym: 78.2%
  MCH: 20.4 pg
  MCHC: 34.9%
  MCV: 58.5 fL
  Mono: 3.2%
  Neu: 17.2%
  PT: 13.5 s
  Plat: 113.1 x10_4/uL
  RBC: 701.4 x10_4/ul
  Ret: 3.6%
  WBC: 101.8 x10_2/uL
  KIDNEY_L: 1.3 g
  KIDNEY_R: 1.3 g
  KIDNEY_TOTAL: 2.6 g
  LIVER: 15 g
  A/G: 0.8
  ALP: 1318.6 IU/L
  ALT: 64.2 IU/L
  AST: 76.2 IU/L
  BUN: 15 mg/dL
  CRE: 0.2 mg/dL
  Ca: 10.6 mg/dL
  Cl: 105.2 meq/L
  DBIL: 0.018 mg/dL
  GLC: 198.8 mg/dL
  IP: 7.9 mg/dL
  K: 4.1 meq/L
  LDH: 118.2 IU/L
  Na: 141.6 meq/L
  PL: 137.8 mg/dL
  RALB: 2.8 g/dL
  TBIL: 0.026 mg/dL
  TC: 52.8 mg/dL
  TG: 157 mg/dL
  TP: 6.1 g/dL
  gamma-GTP: 1.2 IU/L
[4]
  TERMINAL_BW: 402.8 g
  APTT: 17.5 s
  Bas: 0%
  Eos: 1.2%
  Fbg: 337 mg/dL
  Hb: 15.6 g/dL
  Ht: 43.7%
  Lym: 77%
  MCH: 19.9 pg
  MCHC: 35.6%
  MCV: 55.8 fL
  Mono: 2.6%
  Neu: 18.8%
  PT: 13.6 s
  Plat: 99.5 x10_4/uL
  RBC: 783.4 x10_4/ul
  Ret: 3%
  WBC: 101.5 x10_2/uL
  KIDNEY_L: 1.6 g
  KIDNEY_R: 1.5 g
  KIDNEY_TOTAL: 3.2 g
  LIVER: 17.8 g
  A/G: 0.8
  ALP: 1264.2 IU/L
  ALT: 43 IU/L
  AST: 59.8 IU/L
  BUN: 13.8 mg/dL
  CRE: 0.2 mg/dL
  Ca: 11.1 mg/dL
  Cl: 103 meq/L
  DBIL: 0.028 mg/dL
  GLC: 189.2 mg/dL
  IP: 6.4 mg/dL
  K: 3.7 meq/L
  LDH: 99.4 IU/L
  Na: 143 meq/L
  PL: 141 mg/dL
  RALB: 2.8 g/dL
  TBIL: 0.028 mg/dL
  TC: 41.2 mg/dL
  TG: 321.6 mg/dL
  TP: 6.4 g/dL
  gamma-GTP: 1 IU/L
[5]
  TERMINAL_BW: 233.2 g
  APTT: 15.7 s
  Bas: 0%
  Eos: 1%
  Fbg: 295.4 mg/dL
  Hb: 13.8 g/dL
  Ht: 39.9%
  Lym: 74.8%
  MCH: 21.8 pg
  MCHC: 34.6%
  MCV: 63.2 fL
  Mono: 2.8%
  Neu: 21%
  PT: 13.4 s
  Plat: 115.4 x10_4/uL
  RBC: 630.6 x10_4/ul
  Ret: 6.1%
  WBC: 71.4 x10_2/uL
  KIDNEY_L: 1.1 g
  KIDNEY_R: 1.1 g
  KIDNEY_TOTAL: 2.2 g
  LIVER: 12.3 g
  A/G: 0.9
  ALP: 1988.4 IU/L
  ALT: 52.4 IU/L
  AST: 72 IU/L
  BUN: 14.4 mg/dL
  CRE: 0.2 mg/dL
  Ca: 11 mg/dL
  Cl: 106.2 meq/L
  DBIL: 0.028 mg/dL
  GLC: 179 mg/dL
  IP: 8.4 mg/dL
  K: 4.2 meq/L
  LDH: 129.6 IU/L
  Na: 143.2 meq/L
  PL: 110.4 mg/dL
  RALB: 2.8 g/dL
  TBIL: 0.024 mg/dL
  TC: 37.8 mg/dL
  TG: 189 mg/dL
  TP: 5.8 g/dL
  gamma-GTP: 1.2 IU/L
[6]
  TERMINAL_BW: 255 g
  APTT: 19.5 s
  Bas: 0%
  Eos: 0.2%
  Fbg: 345.8 mg/dL
  Hb: 14 g/dL
  Ht: 40.4%
  Lym: 80%
  MCH: 21.6 pg
  MCHC: 34.6%
  MCV: 62.2 fL
  Mono: 3.2%
  Neu: 15.4%
  PT: 13.3 s
  Plat: 121 x10_4/uL
  RBC: 650.2 x10_4/ul
  Ret: 5.3%
  WBC: 65.9 x10_2/uL
  KIDNEY_L: 1.2 g
  KIDNEY_R: 1.2 g
  KIDNEY_TOTAL: 2.4 g
  LIVER: 13.5 g
  A/G: 0.9
  ALP: 1693.8 IU/L
  ALT: 44.4 IU/L
  AST: 63.4 IU/L
  BUN: 13.8 mg/dL
  CRE: 0.2 mg/dL
  Ca: 10.9 mg/dL
  Cl: 105 meq/L
  DBIL: 0.028 mg/dL
  GLC: 182.4 mg/dL
  IP: 7.6 mg/dL
  K: 3.8 meq/L
  LDH: 89.4 IU/L
  Na: 143.4 meq/L
  PL: 117.2 mg/dL
  RALB: 2.9 g/dL
  TBIL: 0.03 mg/dL
  TC: 38.6 mg/dL
  TG: 228.8 mg/dL
  TP: 6.2 g/dL
  gamma-GTP: 1 IU/L
[7]
  TERMINAL_BW: 299.6 g
  APTT: 22.8 s
  Bas: 0%
  Eos: 0%
  Fbg: 327.8 mg/dL
  Hb: 15.3 g/dL
  Ht: 43.7%
  Lym: 70.4%
  MCH: 20.5 pg
  MCHC: 34.9%
  MCV: 58.8 fL
  Mono: 3.4%
  Neu: 25.2%
  PT: 13.5 s
  Plat: 118.5 x10_4/uL
  RBC: 744.4 x10_4/ul
  Ret: 3.2%
  WBC: 93.6 x10_2/uL
  KIDNEY_L: 1.4 g
  KIDNEY_R: 1.4 g
  KIDNEY_TOTAL: 2.8 g
  LIVER: 15.3 g
  A/G: 0.8
  ALP: 1180 IU/L
  ALT: 62 IU/L
  AST: 69.8 IU/L
  BUN: 13 mg/dL
  CRE: 0.2 mg/dL
  Ca: 10.4 mg/dL
  Cl: 105 meq/L
  DBIL: 0.022 mg/dL
  GLC: 172.6 mg/dL
  IP: 7.8 mg/dL
  K: 3.9 meq/L
  LDH: 128.8 IU/L
  Na: 143 meq/L
  PL: 139.2 mg/dL
  RALB: 2.8 g/dL
  TBIL: 0.03 mg/dL
  TC: 44 mg/dL
  TG: 191.2 mg/dL
  TP: 6.2 g/dL
  gamma-GTP: 1.8 IU/L
[8]
  TERMINAL_BW: 358.4 g
  APTT: 19.9 s
  Bas: 0%
  Eos: 1%
  Fbg: 325.4 mg/dL
  Hb: 15.8 g/dL
  Ht: 44.3%
  Lym: 77.8%
  MCH: 19.3 pg
  MCHC: 35.7%
  MCV: 54.1 fL
  Mono: 3.2%
  Neu: 17.4%
  PT: 13.6 s
  Plat: 111.9 x10_4/uL
  RBC: 819 x10_4/ul
  Ret: 2.6%
  WBC: 81.2 x10_2/uL
  KIDNEY_L: 1.8 g
  KIDNEY_R: 1.8 g
  KIDNEY_TOTAL: 3.7 g
  LIVER: 18.6 g
  A/G: 0.8
  ALP: 1072 IU/L
  ALT: 49.8 IU/L
  AST: 60.2 IU/L
  BUN: 12.4 mg/dL
  CRE: 0.2 mg/dL
  Ca: 10.9 mg/dL
  Cl: 101.6 meq/L
  DBIL: 0.026 mg/dL
  GLC: 172 mg/dL
  IP: 6.5 mg/dL
  K: 3.4 meq/L
  LDH: 100 IU/L
  Na: 144.2 meq/L
  PL: 118.6 mg/dL
  RALB: 2.9 g/dL
  TBIL: 0.032 mg/dL
  TC: 36.2 mg/dL
  TG: 202.2 mg/dL
  TP: 6.3 g/dL
  gamma-GTP: 2.6 IU/L
